Data from patent US11654193B2, “Cancer treatment combinations” (The Regents of the University of California, priority 2016, dated 2023).
“Also recorded” adds a separate entry of the source. Like-named read-outs stand apart in the source and are kept apart here.

Legend:
[1] = tested on: cell lines or chronic lymphocytic leukemia samples; conditions: cited from earlier work
[2] = tested on: natural killer cells, macrophages or neutrophils; conditions: cited from earlier work; for cell-mediated mechanisms induced by anti-CD20 antibodies rituximab, ofatumumab or obinutuzumab: purified systems or whole blood assays
[3] = tested on: ROR-1×TCL1 leukemia cells; assay: ROR-1×TCL1 leukemia adoptive transfer in immunocompetent ROR-1-Tg mice; format: in vivo; conditions: cirmtuzumab 10 mg/kg weekly i.v. and/or ibrutinib 5 mg/kg daily via gavage, after 28 days
From the text: (§1) ROR-1×TCL1 Leukemia Adoptive Transfer Study.
After 28 days, the animals were sacrificed and the spleen of each animal was examined.

[4] = tested on: ROR-1×TCL1 leukemia cells; assay: ROR-1×TCL1 leukemia adoptive transfer in immunodeficient Rag2-/-γc-/- mice; format: in vivo; conditions: day 25; for numbers of splenic ROR-1×TCL1 leukemia cells, dose dependence: ibrutinib daily 15, 5, 1.67 mg/kg or single dose UC-961/cirmtuzumab 10, 3, 1 mg/kg
Experimental: ROR-1×TCL1 leukemia adoptive transfer study. […] ROR-1×TCL1 leukemia B cells (CD5B220^lowROR-1^+) were isolated from the spleen, enriched via density gradient centrifugation, suspended in sterile PBS, injected i.v. into Rag2^−/−γc^−/− recipient mice at 2×10^4 cells per animal. Samples used for transplantation were verified by flow cytometry to be >95% leukemia B cells. For dose dependent therapy of UC-961, recipient mice received either no treatment, or one dose i.v. injections of 10 mg/kg, 3 mg/kg and 1 mg/kg of UC-961 on day 1. […] All mice were sacrificed on day 25 and single-cell suspensions of splenocytes were purged of red blood cells by hypotonic lysis in ammonium-chloride-potassium (ACK) lysis solution, washed, suspended in 2% (wt/vol) BSA (Sigma) in PBS (pH=7.4) and stained for surface expression of CD3 (17A2), CD5 (53-7.3), B220 (RA3-6B2), and ROR-1 (4A5) using optimized concentrations of fluorochrome-conjugated mAbs. Cells were examined by four-color, multiparameter flow cytometry using a dual-laser FACSCalibur (BD) and the data were analyzed using FlowJo software (TreeStar). The total number of leukemia cells per spleen was calculated by determining the percent of CD5B220^lowROR-1^+ cells of total lymphocytes by flow cytometry and multiplying this number by the total spleen cell count.
as §1

[5] = single dose UC-961/cirmtuzumab 1 mg/kg and/or ibrutinib 5 mg/kg daily

Row | SMILES | complement activation or complement-mediated lysis ([1]; pre-treatment with ibrutinib) | direct cell death mediated by anti-CD20 antibodies ([1]; pretreatment with ibrutinib for 1 hour) | cell-mediated mechanisms induced by anti-CD20 antibodies rituximab, ofatumumab or obinutuzumab [2] | cell-mediated mechanisms induced by anti-CD20 antibodies rituximab, ofatumumab or obinutuzumab ([2]; listed as Ibrutinib) | mean proportion and leukemia cell number in the spleen [3] | spleen size [3] | numbers of splenic ROR-1×TCL1 leukemia cells, dose dependence [4] | numbers of splenic ROR-1×TCL1 leukemia cells, dose dependence ([4]; listed as Ibrutinib) | percentage and total number of ROR-1×TCL1 leukemia cells per spleen [4, 5] | spleen size [4, 5] | effect on immune cell-mediated mechanisms induced by anti-CD20 antibodies ([2]; 10 μM, compared with ibrutinib at the same concentration)
1 | C=CC(=O)N1CCC[C@@H](n2nc(-c3ccc(Oc4ccccc4)cc3)c3c(N)ncnc32)C1 [ibrutinib, 1-[(3R)-3-[4-Amino-3-(4-phenoxyphenyl)-1H-pyrazolo[3,4-d]pyrimidin-1-yl]piperidin-1-yl]prop-2-en-1-one] | did not inhibit complement activation or complement-mediated lysis | did not increase direct cell death | strongly inhibited all cell-mediated mechanisms | interfered with the activity of the CD20 antibodies | significantly lower | significantly smaller spleens | Dose-dependent inhibitory effect | inhibited the expansion of ROR-1×TCL1 leukemia cells in a dose-dependent manner; also recorded: reduced the numbers of splenic leukemia cells in a dose-dependent manner | significantly lower | significantly smaller spleens | –
2 | CC[C@H](Nc1ncnc2[nH]cnc12)c1nc2cccc(F)c2c(=O)n1-c1ccccc1 [idelalisib, 5-Fluoro-3-phenyl-2-[(15)-1-(7H-purin-6-ylamino)propyl]-4(3H)-quinazolinone] | – | – | similarly inhibits the immune cell-mediated mechanisms | – | – | – | – | – | – | – | weaker than those observed with ibrutinib
